Assay results taken from article PMC8041284, “Tunable Methacrylamides for Covalent Ligand Directed Release Chemistry” (Journal of the American Chemical Society, 2021).
Where two headings read alike, the source gives them in different places.

Biological target: BTK (Homo sapiens, UniProt Q06187)
Assay: biochemical
[1] = read-out: BTK inhibition (%), 0.75 uM BTK, […] probe 3l, 15 min preincubation

BTK, sequence (Q06187 402-655 limits assumed): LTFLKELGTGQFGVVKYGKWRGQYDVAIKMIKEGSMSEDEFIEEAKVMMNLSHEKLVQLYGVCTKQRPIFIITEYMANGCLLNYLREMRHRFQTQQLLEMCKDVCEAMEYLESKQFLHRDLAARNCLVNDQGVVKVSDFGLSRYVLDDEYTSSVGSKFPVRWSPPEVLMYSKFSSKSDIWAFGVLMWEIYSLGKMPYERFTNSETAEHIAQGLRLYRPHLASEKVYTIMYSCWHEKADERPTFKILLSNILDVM

inhibition at 10 µM [1] [%]	Compound	inhibition at 10 µM (read-out: BTK inhibition (%)) [%]
-10.1	NC(=O)N1c2ccccc2CC(=O)c2ccccc21 [PCM-0086055]	–
-9.3	Cc1ccc(NC(=O)C2(c3ccc4c(c3)OC(F)(F)O4)CC2)nc1-c1cccc(C(=O)O)c1 [PCM-0095124]	–
7.7	COc1cc(-c2oc3cc(O)cc(O)c3c(=O)c2O[C@@H]2O[C@H](CO[C@@H]3O[C@@H](C)[C@H](O)[C@@H](O)[C@H]3O)[C@@H](O)[C@H](O)[C@H]2O[C@@H]2O[C@@H](C)[C@H](O)[C@@H](O)[C@H]2O)ccc1O [PCM-0216372]	–
4.8	C[C@H](NC(=O)Cc1cc(F)cc(F)c1)C(=O)N[C@@H]1C(=O)N(C)c2ccccc2-c2ccccc21 [PCM-0095414]	–
15.2	O=C(O)COCCN1CCN(C(c2ccccc2)c2ccc(Cl)cc2)CC1 (stereo not drawn) [PCM-0065180]	–
10	Cc1ccc(C(=O)O)c(O)c1 [PCM-0216186]	–
-14	CCCCCCOC(=O)NC(=N)c1ccc(NCc2nc3cc(C(=O)N(CCC(=O)OCC)c4ccccn4)ccc3n2C)cc1 [PCM-0214664]	–
9.3	Cc1onc(-c2c(Cl)cccc2Cl)c1C(=O)N[C@@H]1C(=O)N2[C@@H]1SC(C)(C)[C@@H]2C(=O)O [PCM-0214747]	–
-17.9	CCNC1(C(N)=O)CCN(c2ncnc3c2nc(-c2ccccc2Cl)n3-c2ccc(Cl)cc2)CC1 [PCM-0095601]	–
-3.4	COC(=O)Nc1nc2ccc(C(=O)c3ccc(F)cc3)cc2[nH]1 [PCM-0086402]	–
-8.3	COc1ccc(-c2ccc3c(N4CCOC[C@@H]4C)nc(N4CCOC[C@@H]4C)nc3n2)cc1CO [PCM-0095110]	–
-19.5	C[C@@H]1O[C@@H](OC[C@H]2O[C@@H](Oc3c(-c4ccc(OCCO)c(OCCO)c4)oc4cc(OCCO)cc(O)c4c3=O)[C@H](O)[C@@H](O)[C@@H]2O)[C@H](O)[C@H](O)[C@H]1O [PCM-0214656]	–
-6.2	C=C[C@@H]1CNC(=S)O1 [PCM-0216374]	–
-21.8	O=C(O)/C=C/c1ccc(O)cc1 [PCM-0214939]	–
-10.1	COCCCOc1ccnc(C[S+]([O-])c2nc3ccccc3[nH]2)c1C (stereo not drawn) [PCM-0214837]	–
14.7	Cc1c[nH]c(=O)[nH]c1=O [PCM-0216631]	–
3.1	NC(=O)OCC(COC(N)=O)c1ccccc1 [PCM-0065204]	–
83.4	Cc1c[nH]c(/C=C2\C(=O)Nc3ccccc32)c1CCC(=O)O [PCM-0216652]	–
8.5	O=C(/C=C/c1ccc(O)c2c1[C@H](C(=O)O)[C@@H](c1ccc(O)c(O)c1)O2)O[C@H](Cc1ccc(O)c(O)c1)C(=O)O [PCM-0216504]	–
-10.9	CC[C@H]1OC(=O)[C@H](C)[C@@H](O[C@H]2C[C@@](C)(OC)[C@@H](O)[C@H](C)O2)[C@H](C)[C@@H](O[C@@H]2O[C@H](C)C[C@H](N(C)C)[C@H]2O)[C@](C)(O)C[C@@H](C)[C@@H]2N[C@@H](COCCOC)O[C@H]([C@H]2C)[C@]1(C)O [PCM-0214762]	–
1.5	O=C1O[C@H]([C@H](O)CO)C(O)=C1O [PCM-0215957]	–
3.1	CNC(=O)c1ccc2cc([C@@]3(O)CCn4cncc43)ccc2c1 [PCM-0095080]	–
-24.9	CCOC(=O)[C@H](CCc1ccccc1)N[C@H]1CCc2ccccc2N(CC(=O)O)C1=O [PCM-0086130]	–
-20.8	CCNC(=O)C[C@@H]1N=C(c2ccc(Cl)cc2)c2cc(OC)ccc2-n2c(C)nnc21 [PCM-0215230]	–

Second part, the compound before the results:

Compound	inhibition at 10 µM [1] [%]	inhibition at 10 µM (read-out: BTK inhibition (%)) [%]
Nc1nccc(Oc2ccc(NC(=O)c3c[nH]cc(-c4ccc(F)cc4)c3=O)cc2F)c1Cl [PCM-0095240]	68.3	–
O=C(O)c1ccc(Cl)cc1O [PCM-0214870]	-10.9	–
Cc1sc2c(c1C)C(c1ccc(Cl)cc1)=N[C@@H](CC(=O)Nc1ccc(O)cc1)c1nnc(C)n1-2 [PCM-0095727]	3.1	–
Nc1ncnc2c1ncn2[C@@H]1O[C@H](COP(=O)(O)O)[C@@H](O)[C@H]1O [PCM-0086027]	-23.2	–
CC(C)(C)c1[nH]cnc1/C=c1\[nH]c(=O)/c(=C/c2ccccc2)[nH]c1=O [PCM-0095681]	-2.1	–
OC[C@H]1O[C@@H](Oc2cc3c(O)cc(O)cc3[o+]c2-c2ccc(O)c(O)c2)[C@H](O)[C@@H](O)[C@@H]1O [PCM-0216543]	23.9	–
CC1=C(CSC(=S)N2CCCCC2)C(=O)c2ccccc2C1=O [PCM-0215883]	21.6	–
O=c1cc(N2CCOCC2)oc2c(-c3ccccc3)cccc12 [PCM-0065588]	-22.1	–
CC(C)CCC[C@@H](C)[C@H]1CC[C@H]2C3=CC=C4C[C@@H](O)CC[C@]4(C)[C@H]3CC[C@]12C [PCM-0216561]	18.5	–
C[C@H]1O[C@@H](O[C@H]2CC[C@@]3(C)[C@@H](CC[C@]4(C)[C@@H]3C=CC3=C5CC(C)(C)CC[C@]5(CO)[C@@H](O)C[C@]34C)[C@]2(C)CO)[C@H](O[C@@H]2O[C@H](CO)[C@@H](O)[C@H](O)[C@H]2O)[C@@H](O[C@@H]2O[C@H](CO)[C@@H](O)[C@H](O)[C@H]2O)[C@H]1O [PCM-0216370]	25.5	–
O=C1NC(=NCc2cccs2)S/C1=C\c1ccc2ncccc2c1 [PCM-0215455]	-9	–
CC(C)(N)C(=O)N[C@H](COCc1ccccc1)C(=O)N1CCC2(CC1)CN(S(C)(=O)=O)c1ccccc12 [PCM-0216059]	-11.7	–
CN(C)CC(=O)Nc1ccc2[nH]c(=O)c3ccccc3c2c1 [PCM-0213810]	-7.7	–
COc1cc2c(cc1O)C[C@@H]1NCCc3cc(OC)c(O)c-2c31 [PCM-0216385]	6.2	–
COc1cc(C=O)cc(OC)c1O [PCM-0215069]	-33.5	–
C[n+]1cc2c3c(ccc2c2ccc4cc5c(cc4c21)OCO5)OCO3 [PCM-0065605]	75.7	–
COC(=O)C[C@](O)(CCC(C)(C)O)C(=O)O[C@@H]1C(OC)=C[C@]23CCCN2CCc2cc4c(cc2[C@H]13)OCO4 [PCM-0216362]	–	-7.7
CC(=O)OCC1=C(C(=O)O)N2C(=O)[C@@H](NC(=O)CSc3ccncc3)[C@H]2SC1 [PCM-0215254]	3.1	–
CCOC(=O)[C@H]1O[C@@H]1C(=O)N[C@@H](CC(C)C)C(=O)NCCC(C)C [PCM-0215286]	14.7	–
CCN(CC)c1ccc(/C=N/NC(=O)c2ccc(O)cc2)cc1 [PCM-0216144]	0	–
Oc1ccc(-c2c(-c3ccccc3)nn3c(C(F)(F)F)cc(C(F)(F)F)nc23)cc1 [PCM-0216048]	–	27.8
COCCCc1sc(-c2ccccc2)nc1C(=O)Nc1ccccc1-c1nc2cc(CN3CCCC3)cnc2s1 [PCM-0215812]	57.9	–
C[C@H]1CO[C@@H]2Cn3cc(C(=O)NCc4ccc(F)cc4F)c(=O)c(O)c3C(=O)N12 [PCM-0215445]	24.7	–
COc1cc(-c2coc3cc4c(c(OC)c3c2=O)OCO4)cc(OC)c1OC [PCM-0216353]	-9.3	–

Compound	inhibition at 10 µM [1] [%]	inhibition at 10 µM (read-out: BTK inhibition (%)) [%]
NCC(=O)Nc1ccc(-n2nc(C(F)(F)F)cc2-c2ccc3c(ccc4ccccc43)c2)cc1 [PCM-0094886]	70.3	–
O=C(O)c1ccc(N2C(=O)/C(=C/c3ccc(-c4ccc([N+](=O)[O-])cc4)o3)C=C2c2ccccc2)cc1 [PCM-0095764]	98.1	–
NC(=O)c1cc(F)cc2c1C(=O)N(C1CCN(C3CCC(F)(F)CC3)CC1)C2 [PCM-0215809]	4.6	–
C[C@]12CC[C@H]3[C@@H](CC[C@@]45O[C@@H]4C(O)=C(C#N)C[C@]35C)[C@@H]1CC[C@@H]2O [PCM-0214622]	13.2	–
C[C@H](N)C(=O)O [PCM-0216222]	-4.3	–
O=c1[nH]nc2c3c(cccc13)NC(CN1Cc3ccccc3C1)=N2 [PCM-0215799]	0.8	–
COc1cc(O)cc(O)c1C(=O)C=Cc1ccccc1 [PCM-0214685]	12.5	–
CCC(=O)OCC(=O)[C@@]1(OC(=O)CC)[C@@H](C)C[C@H]2[C@@H]3CCC4=CC(=O)C=C[C@]4(C)[C@@]3(F)[C@@H](O)C[C@@]21C [PCM-0095138]	-9.3	–
C/C=C(\C)C(=O)O [PCM-0215012]	15.6	–
C=C1[C@H](O)C[C@H]2[C@@H](/C=C(\C)C(=O)[C@@]3(O)C[C@H](C)[C@H](O)[C@@H]3[C@H]1O)C2(C)C [PCM-0216654]	-8.6	–
CCN(CC)CC(=O)Oc1ccc(NC(C)=O)cc1 [PCM-0215103]	-0.8	–
COc1cc(C=O)c([N+](=O)[O-])cc1OC [PCM-0216182]	-13.9	–
COc1ccc2cc1Oc1ccc(cc1)C[C@H]1c3c(cc4c(c3Oc3cc5c(cc3OC)CCN(C)[C@@H]5C2)OCO4)CCN1C [PCM-0214760]	30.4	–
COc1ccc(-c2coc3cc(O)ccc3c2=O)cc1 [PCM-0087244]	0.8	–
CC(C)Nc1cc(-c2c[nH]c(C(=O)N[C@H](CO)c3cccc(Cl)c3)c2)c(Cl)cn1 [PCM-0215481]	78.6	–
COC(=O)Nc1nc2ccc(C(=O)c3cccs3)cc2[nH]1 [PCM-0065378]	-6.2	–
O=C(O)c1ccc(O)c(O)c1 [PCM-0215076]	2.8	–
COc1c(C)c(C(=O)c2ccc(N)c(C(=O)O)c2)n2ccccc12 [PCM-0215263]	17.2	–
CC(C)(C)C(=O)N1N=CC[C@H]1c1ccccc1 [PCM-0216112]	13.8	–
COc1ccc2cc3[n+](cc2c1O)CCc1cc2c(cc1-3)OCO2 [PCM-0216489]	97.3	–
Nc1nc(NC2CC2)cc(-c2cccc(Cl)c2Cl)n1 [PCM-0215420]	28.6	–
CCCc1cc2c(N3CCN(C4=NCC(C)(C)S4)CC3)ncnc2s1 [PCM-0215393]	-24.7	–
C[C@H]1CN(C[C@H](Cc2ccccc2)C(=O)NCC(=O)O)CC[C@@]1(C)c1cccc(O)c1 [PCM-0216566]	-13.1	–
CCN1CCN(C(=O)Cc2ccc(Nc3ncc(F)c(Nc4ccc(C(=O)Nc5ccccc5Cl)cc4)n3)cc2)CC1 [PCM-0095121]	40.7	–
